Source: article PMC13120037 (2026)

Key:
[1] = tested on: Seq78-7 (DNA, aptamer) GGGAGCTCAGAATAAACGCTCAAGTTCCTCTATTCTAGTTATGCGCTACGTACGCTAGTTCGACATGAGGCCCGGATC; assay: AuNP colorimetric assay (A520); conditions: Na+ (NaCl 40 mM final, added after binding); room temperature, 30 min; 1 μg/mL α-amanitin, aptamer 0-1600 nM; 35 or 78 nt form not stated
[2] = tested on: Seq78-4 (DNA, aptamer) GGGAGCTCAGAATAAACGCTCAATTTTCGCTGGCTAGTCAGTTTTCTCGTCGTGTGATTTCGACATGAGGCCCGGATC; assay: magnetic-bead strand release, supernatant absorbance (Nanodrop); conditions: 25 °C, 60 min; 20 μM α-amanitin; capture strand Capture-am-biotin displaced; Langmuir single-point calculation, not fitted
[3] = tested on: Seq78-4 (DNA, aptamer) GGGAGCTCAGAATAAACGCTCAATTTTCGCTGGCTAGTCAGTTTTCTCGTCGTGTGATTTCGACATGAGGCCCGGATC; assay: AuNP colorimetric assay (A520); conditions: Na+ (NaCl 40 mM final, added after binding); room temperature, 30 min; 1 μg/mL α-amanitin, aptamer 0-1600 nM; 35 or 78 nt form not stated
[4] = tested on: Seq78-2 (DNA, aptamer) GGGAGCTCAGAATAAACGCTCAAGCACGCGTCGTCTTCCTGCGCTTCTCCCCGCATCATTCGACATGAGGCCCGGATC; assay: magnetic-bead strand release, supernatant absorbance (Nanodrop); conditions: 25 °C, 60 min; 20 μM α-amanitin; capture strand Capture-am-biotin displaced; Langmuir single-point calculation, not fitted
[5] = tested on: Seq78-7 (DNA, aptamer) GGGAGCTCAGAATAAACGCTCAAGTTCCTCTATTCTAGTTATGCGCTACGTACGCTAGTTCGACATGAGGCCCGGATC; assay: as above; conditions: 25 °C, 60 min; 20 μM α-amanitin; capture strand Capture-am-biotin displaced; Langmuir single-point calculation, not fitted
[6] = tested on: Seq78-2 (DNA, aptamer) GGGAGCTCAGAATAAACGCTCAAGCACGCGTCGTCTTCCTGCGCTTCTCCCCGCATCATTCGACATGAGGCCCGGATC; assay: AuNP colorimetric assay (A520); conditions: Na+ (NaCl 40 mM final, added after binding); room temperature, 30 min; 1 μg/mL α-amanitin, aptamer 0-1600 nM; 35 or 78 nt form not stated
[7] = tested on: Seq78-9 (DNA, aptamer) GGGAGCTCAGAATAAACGCTCAACTTTTCTGGTTACTCTCGTTTGTTTGATGTTACTTTTCGACATGAGGCCCGGATC; assay: AuNP colorimetric assay (A520); conditions: Na+ (NaCl 40 mM final, added after binding); room temperature, 30 min; 1 μg/mL α-amanitin, aptamer 0-1600 nM; 35 or 78 nt form not stated
[8] = tested on: Seq78-9 (DNA, aptamer) GGGAGCTCAGAATAAACGCTCAACTTTTCTGGTTACTCTCGTTTGTTTGATGTTACTTTTCGACATGAGGCCCGGATC; assay: magnetic-bead strand release, supernatant absorbance (Nanodrop); conditions: 25 °C, 60 min; 20 μM α-amanitin; capture strand Capture-am-biotin displaced; Langmuir single-point calculation, not fitted

Kd [1]: 0.216 ± 0.003 µM
Kd [2]: 0.0578 ± 0.001001 µM
Kd [3]: 0.06 ± 0.003 µM
Kd [4]: 0.85 ± 0.045 µM
Kd [5]: 0.256 ± 0.005 µM
Kd [6]: 0.82 ± 0.005 µM
Kd [7]: 0.881 ± 0.006 µM
Kd [8]: 0.91 ± 0.031 µM
SMILES: CC[C@H](C)[C@@H]1NC(=O)CNC(=O)[C@@H]2Cc3c([nH]c4cc(O)ccc34)[S@](=O)C[C@H](NC(=O)CNC1=O)C(=O)N[C@@H](CC(N)=O)C(=O)N1C[C@H](O)C[C@H]1C(=O)N[C@@H]([C@@H](C)[C@@H](O)CO)C(=O)N2
